From ChEMBL document CHEMBL2439953, “Dimeric argininamide-type neuropeptide Y receptor antagonists: chiral discrimination between Y1 and Y4 receptors” (Bioorg Med Chem, 2013)

Columns and labels:
[1] = molecular target: T1, Neuropeptide Y receptor type 4 (Homo sapiens, UniProt P50391); assay: Antagonist activity at human neuropeptide Y receptor type 4 expressed in CHO cells co-expressing Gqi5-mtAEQ assessed as inhibition of hPP-induced calcium mobilization by Aequorin assay; format: functional, cell-based
[2] = molecular target: T1, Neuropeptide Y receptor type 4; assay: Binding affinity to human neuropeptide Y receptor type 4 receptor expressed in CHO cells using Cy5-[K4]-hPP by flow cytometric analysis; format: cell-based
[3] = molecular target: T2, Neuropeptide Y receptor type 1 (Homo sapiens, UniProt P25929); assay: Displacement of [3H]UR-MK114 from human neuropeptide Y receptor type 1 expressed in human SK-N-MC cells; format: cell-based
T2 sequence (P25929 whole entry): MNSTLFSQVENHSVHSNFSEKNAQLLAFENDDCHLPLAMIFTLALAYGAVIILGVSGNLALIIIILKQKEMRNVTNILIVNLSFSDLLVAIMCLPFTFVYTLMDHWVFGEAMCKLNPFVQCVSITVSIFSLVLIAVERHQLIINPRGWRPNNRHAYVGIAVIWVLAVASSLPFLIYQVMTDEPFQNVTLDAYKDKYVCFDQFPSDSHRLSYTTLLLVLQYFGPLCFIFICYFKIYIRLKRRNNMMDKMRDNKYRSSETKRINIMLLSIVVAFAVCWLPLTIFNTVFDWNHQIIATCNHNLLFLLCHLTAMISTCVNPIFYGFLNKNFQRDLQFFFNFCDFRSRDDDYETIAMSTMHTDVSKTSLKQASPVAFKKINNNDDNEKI

[4] = molecular target: T3, Neuropeptide Y receptor type 1 (Homo sapiens) (UniProt P25929); assay: Antagonist activity at neuropeptide Y receptor type 1 in HEL assessed as inhibition of pNPY-induced calcium mobilization by Fura-2 calcium assay; format: functional
T3 sequence (whole entry): T2 sequence (P25929 whole entry)

[5] = molecular target: T4, Neuropeptide Y receptor type 2 (Homo sapiens, UniProt P49146); assay: Binding affinity to human neuropeptide Y receptor type 2 receptor expressed in CHO cells using Cy5-pNPY by flow cytometric analysis; format: cell-based
T4 sequence (P49146 whole entry): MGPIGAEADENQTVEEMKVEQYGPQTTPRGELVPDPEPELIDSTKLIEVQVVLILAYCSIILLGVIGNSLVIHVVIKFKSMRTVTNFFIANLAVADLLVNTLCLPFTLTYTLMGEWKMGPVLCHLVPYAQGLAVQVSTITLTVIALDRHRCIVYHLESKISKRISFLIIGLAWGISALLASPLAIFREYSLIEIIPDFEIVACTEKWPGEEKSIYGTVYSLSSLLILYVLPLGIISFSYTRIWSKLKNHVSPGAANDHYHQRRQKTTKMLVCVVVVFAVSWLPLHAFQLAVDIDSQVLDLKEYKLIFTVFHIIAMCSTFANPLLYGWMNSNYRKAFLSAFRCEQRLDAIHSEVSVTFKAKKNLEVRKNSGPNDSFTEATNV

[6] = molecular target: T5, Neuropeptide Y receptor type 5 (Homo sapiens, UniProt Q15761); assay: Binding affinity to human neuropeptide Y receptor type 5 receptor expressed in HEC-1B cells using Cy5-pNPY by flow cytometric analysis; format: cell-based
T5 sequence (Q15761 whole entry): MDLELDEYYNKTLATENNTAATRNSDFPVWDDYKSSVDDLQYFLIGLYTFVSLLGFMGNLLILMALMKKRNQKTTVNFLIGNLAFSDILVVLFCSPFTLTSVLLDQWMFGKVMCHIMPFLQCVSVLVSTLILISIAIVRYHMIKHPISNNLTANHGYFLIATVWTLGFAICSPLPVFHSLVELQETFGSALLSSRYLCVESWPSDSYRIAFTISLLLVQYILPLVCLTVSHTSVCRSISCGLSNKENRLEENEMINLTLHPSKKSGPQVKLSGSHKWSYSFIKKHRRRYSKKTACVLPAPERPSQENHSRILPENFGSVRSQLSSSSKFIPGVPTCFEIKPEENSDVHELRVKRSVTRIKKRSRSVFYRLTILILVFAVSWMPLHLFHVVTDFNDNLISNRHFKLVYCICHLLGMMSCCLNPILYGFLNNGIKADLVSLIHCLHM

[7] = molecular target: T2, Neuropeptide Y receptor type 1; assay: Displacement of [3H]UR-MK114 from human neuropeptide Y receptor type 1 expressed in human MCF7 cells; format: cell-based

T1 sequence (P50391 whole entry): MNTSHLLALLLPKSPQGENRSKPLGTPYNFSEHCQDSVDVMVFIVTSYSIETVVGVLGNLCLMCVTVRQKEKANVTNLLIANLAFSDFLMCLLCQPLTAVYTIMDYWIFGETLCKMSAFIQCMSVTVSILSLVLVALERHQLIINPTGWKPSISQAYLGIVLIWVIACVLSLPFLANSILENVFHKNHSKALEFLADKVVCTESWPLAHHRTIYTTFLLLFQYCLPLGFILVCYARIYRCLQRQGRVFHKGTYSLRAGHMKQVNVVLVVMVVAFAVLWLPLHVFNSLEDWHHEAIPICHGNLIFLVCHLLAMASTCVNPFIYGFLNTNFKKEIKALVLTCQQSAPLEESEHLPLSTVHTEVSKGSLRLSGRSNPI

| SMILES | Kb [1] [nM] | Ki [2] [nM] | Ki [3] [nM] | Kb [4] [nM] | Ki [5] [nM] | Ki [6] [nM] | Ki [7] [nM] |
| --- | --- | --- | --- | --- | --- | --- | --- |
| NCCN(CCNC(=O)CCCC(=O)/N=C(/N)NCCC[C@@H](NC(=O)C(c1ccccc1)c1ccccc1)C(=O)NCc1ccc(O)cc1)CCNC(=O)CCCC(=O)/N=C(/N)NCCC[C@@H](NC(=O)C(c1ccccc1)c1ccccc1)C(=O)NCc1ccc(O)cc1 | 73 | 390 | 30 | 4.2 | 620 | > 5000 | – |
| NCCN(CCNC(=O)c1ccc(C(=O)NCCOCCOCCNC(=O)/N=C(/N)NCCC[C@@H](NC(=O)C(c2ccccc2)c2ccccc2)C(=O)NCc2ccc(O)cc2)cc1)CCNC(=O)c1ccc(C(=O)NCCOCCOCCNC(=O)/N=C(/N)NCCC[C@@H](NC(=O)C(c2ccccc2)c2ccccc2)C(=O)NCc2ccc(O)cc2)cc1 | 20 | 130 | – | 0.25 | – | > 5000 | 48 |
| N/C(=N/C(=O)CCCCCCC(=O)/N=C(\N)NCCC[C@@H](NC(=O)C(c1ccccc1)c1ccccc1)C(=O)NCc1ccc(O)cc1)NCCC[C@@H](NC(=O)C(c1ccccc1)c1ccccc1)C(=O)NCc1ccc(O)cc1 | 98 | – | – | 3.5 | – | – | – |
| NCCN(CCNC(=O)CCC(=O)NCCCCCCNC(=O)/N=C(\N)NCCC[C@H](NC(=O)CC1(CC(=O)N2CCN(C3c4ccccc4NC(=O)c4ccccc43)CC2)CCCC1)C(=O)NCCn1c(=O)n(-c2ccccc2)n(-c2ccccc2)c1=O)CCNC(=O)CCC(=O)NCCCCCCNC(=O)/N=C(\N)NCCC[C@@H](NC(=O)C(c1ccccc1)c1ccccc1)C(=O)NCc1ccc(O)cc1 (mixture of isomers) | 72 | 910 | 230 | 1.5 | 85 | > 5000 | 260 |
| NCCN(CCNC(=O)CCC(=O)NCCOCCOCCNC(=O)/N=C(/N)NCCC[C@@H](NC(=O)C(c1ccccc1)c1ccccc1)C(=O)NCc1ccc(CNC(N)=O)cc1)CCNC(=O)CCC(=O)NCCOCCOCCNC(=O)/N=C(/N)NCCC[C@@H](NC(=O)C(c1ccccc1)c1ccccc1)C(=O)NCc1ccc(CNC(N)=O)cc1 | 96 | 290 | 230 | 4.2 | 4000 | > 5000 | 210 |
| N=C(N)NCCC[C@@H](NC(=O)C(c1ccccc1)c1ccccc1)C(=O)NCc1ccc(CNC(=O)NCCCCNC(=O)CCCC(=O)NCCN(CCN)CCNC(=O)CCCC(=O)NCCCCNC(=O)NCc2ccc(CNC(=O)[C@@H](CCCNC(=N)N)NC(=O)C(c3ccccc3)c3ccccc3)cc2)cc1 | > 5000 | 3500 | 330 | 120 | > 5000 | > 5000 | 430 |
| NCCN(CCNC(=O)CCC(=O)NCCOCCOCCNC(=O)/N=C(/N)NCCC[C@@H](NC(=O)C(c1ccccc1)c1ccccc1)C(=O)NCc1ccc(O)cc1)CCNC(=O)CCC(=O)NCCOCCOCCNC(=O)/N=C(/N)NCCC[C@@H](NC(=O)C(c1ccccc1)c1ccccc1)C(=O)NCc1ccc(O)cc1 | 41 | 470 | 25 | 1.1 | 1800 | > 5000 | 37 |
| NCCN(CCNC(=O)CCC(=O)NCCOCCOCCNC(=O)/N=C(/N)NCCC[C@H](NC(=O)C(c1ccccc1)c1ccccc1)C(=O)NCc1ccc(CNC(N)=O)cc1)CCNC(=O)CCC(=O)NCCOCCOCCNC(=O)/N=C(/N)NCCC[C@H](NC(=O)C(c1ccccc1)c1ccccc1)C(=O)NCc1ccc(CNC(N)=O)cc1 | 140 | 310 | 3100 | 110 | 1100 | > 5000 | – |
| CCC(=O)NCCN(CCNC(=O)c1ccc(C(=O)NCCOCCOCCNC(=O)/N=C(/N)NCCC[C@@H](NC(=O)C(c2ccccc2)c2ccccc2)C(=O)NCc2ccc(O)cc2)cc1)CCNC(=O)c1ccc(C(=O)NCCOCCOCCNC(=O)/N=C(/N)NCCC[C@@H](NC(=O)C(c2ccccc2)c2ccccc2)C(=O)NCc2ccc(O)cc2)cc1 | 36 | 410 | 64 | – | > 5000 | > 5000 | 110 |
| NCCN(CCNC(=O)CCCC(=O)NCCOCCOCCNC(=O)/N=C(/N)NCCC[C@@H](NC(=O)C(c1ccccc1)c1ccccc1)C(=O)NCc1ccc(O)cc1)CCNC(=O)CCCC(=O)NCCOCCOCCNC(=O)/N=C(/N)NCCC[C@@H](NC(=O)C(c1ccccc1)c1ccccc1)C(=O)NCc1ccc(O)cc1 | 44 | 290 | 29 | – | 1500 | > 5000 | 50 |
| NCCOCCOCCNC(=O)/N=C(/N)NCCC[C@H](NC(=O)C(c1ccccc1)c1ccccc1)C(=O)NCc1ccc(CNC(N)=O)cc1 | > 5000 | > 5000 | > 5000 | > 5000 | – | – | – |
